From ChEMBL document CHEMBL1212797, “Miltefosine efficiently eliminates Leishmania major amastigotes from infected murine dendritic cells without altering their immune functions” (Antimicrob Agents Chemother, 2010)
The source made the active and inactive calls. The rule behind the calls is not given here.

Columns and labels:
dendritic [1] = assay: Immunomodulatory effect in Leishmania major Leishmania major infected sC57BL/6 mouse bone marrow dendritic cells assessed as CD86 expression at 5 to 50 uM after 18 hrs by flow cytometry; assay type: functional, cell-based; conditions: C57BL/6
[2] = Induction of apoptosis in C57BL/6 mouse dendritic cells assessed as early apoptotic cells at 50 uM after 18 hrs using annexin V-propidium iodide and annexin V staining by flow cytometry; assay type: cell-based
[3] = Induction of apoptosis in C57BL/6 mouse dendritic cells assessed as late apoptotic cells at 5 uM after 72 hrs using annexin V-propidium iodide and annexin V staining by flow cytometry; assay type: cell-based
[4] = Cytotoxicity against C57BL/6 mouse immature bone marrow-derived dendritic cells assessed as reduction of cell survival at >100 uM after 48 hrs by propidium iodide exclusion staining based flow cytometry
[5] = Induction of apoptosis in C57BL/6 mouse dendritic cells assessed as viable cells at 5 uM after 72 hrs using annexin V-propidium iodide and annexin V staining by flow cytometry; assay type: cell-based; conditions: read-out: Activity
dendritic [6] = assay: Immunomodulatory effect in Leishmania major Leishmania major infected sC57BL/6 mouse bone marrow dendritic cells assessed as CD40 expression at 5 to 50 uM after 18 hrs by flow cytometry; assay type: functional, cell-based; conditions: C57BL/6
[7] = Induction of apoptosis in C57BL/6 mouse dendritic cells assessed as early apoptotic cells at 25 uM after 18 hrs using annexin V-propidium iodide and annexin V staining by flow cytometry; assay type: cell-based
[8] = Induction of apoptosis in C57BL/6 mouse dendritic cells assessed as necrotic cells at 50 uM after 72 hrs using annexin V-propidium iodide and annexin V staining by flow cytometry; assay type: cell-based
dendritic [9] = assay: Effect on antigen specific CD4+ T cells expansion by Leishmania major amastigotes infected C57BL/6 mouse dendritic cells assessed as increase in [3H]thymidine incorporation at 50 uM after 72 hrs; assay type: functional, cell-based
[10] = Induction of apoptosis in C57BL/6 mouse dendritic cells assessed as viable cells at 5 uM after 18 hrs using annexin V-propidium iodide and annexin V staining by flow cytometry; assay type: cell-based; conditions: read-out: Activity
[11] = Induction of apoptosis in C57BL/6 mouse dendritic cells assessed as […] viable cells at 25 uM after 18 hrs using annexin V-propidium iodide and annexin V staining by flow cytometry; assay type: cell-based; conditions: read-out: Activity
[12] = Induction of apoptosis in C57BL/6 mouse dendritic cells assessed as late apoptotic cells at 5 uM after 18 hrs using annexin V-propidium iodide and annexin V staining by flow cytometry; assay type: cell-based
[13] = Induction of apoptosis in C57BL/6 mouse dendritic cells assessed as late apoptotic cells at 25 uM after 72 hrs using annexin V-propidium iodide and annexin V staining by flow cytometry; assay type: cell-based
dendritic [14] = assay: Effect on antigen specific CD8+ T cells expansion by Leishmania major amastigotes infected C57BL/6 mouse dendritic cells assessed as increase in [3H]thymidine incorporation at 50 uM after 72 hrs; assay type: functional, cell-based
dendritic [15] = assay: Immunomodulatory effect in Leishmania major infected C57BL/6 mouse dendritic cells assessed as IL-12p40 production after 18 hrs by ELISA; assay type: functional, cell-based
Mus musculus [16] = assay: Immunomodulatory effect in Leishmania major infected C57BL/6 mouse assessed as levels of CD11c+ and MHC-2+ in dendritic cells at 20 ug administered topically measured after 48 hrs by FACS method; assay type: functional, organism-based
dendritic [17] = assay: Immunomodulatory effect in Leishmania major infected C57BL/6 mouse dendritic cells assessed as IL-12p70 production after 18 hrs by ELISA; assay type: functional, cell-based
dendritic [18] = assay: Immunomodulatory effect in Leishmania major infected C57BL/6 mouse dendritic cells assessed as TNF-alpha production after 18 hrs by ELISA; assay type: functional, cell-based
dendritic [19] = assay: Immunomodulatory effect in Leishmania major uninfected C57BL/6 mouse bone marrow dendritic cells assessed as CD86 expression at 5 to 50 uM after 18 hrs by flow cytometry; assay type: functional, cell-based
dendritic [20] = assay: Immunomodulatory effect in Leishmania major infected C57BL/6 mouse dendritic cells assessed as IL-10 production after 18 hrs by ELISA; assay type: functional, cell-based
[21] = Induction of apoptosis in C57BL/6 mouse dendritic cells assessed as late apoptotic cells at 50 uM after 72 hrs using annexin V-propidium iodide and annexin V staining by flow cytometry; assay type: cell-based
Homo sapiens = species: Homo sapiens; assay: Plasma concentration in leishmaniasis patient during last week of 4-week treatment course; assay type: ADME, organism-based; conditions: in vivo
[22] = Induction of apoptosis in C57BL/6 mouse dendritic cells assessed as early apoptotic cells at 5 uM after 72 hrs using annexin V-propidium iodide and annexin V staining by flow cytometry; assay type: cell-based
[23] = Induction of apoptosis in C57BL/6 mouse dendritic cells assessed as viable cells at 50 uM after 18 hrs using annexin V-propidium iodide and annexin V staining by flow cytometry; assay type: cell-based; conditions: read-out: Activity
[24] = Induction of apoptosis in C57BL/6 mouse dendritic cells assessed as early apoptotic cells at 50 uM after 72 hrs using annexin V-propidium iodide and annexin V staining by flow cytometry; assay type: cell-based
dendritic [25] = assay: Immunomodulatory effect in Leishmania major uninfected C57BL/6 mouse bone marrow dendritic cells assessed as CD54 expression at 5 to 50 uM after 18 hrs by flow cytometry; assay type: functional, cell-based
dendritic [26] = assay: Immunomodulatory effect in uninfected C57BL/6 mouse dendritic cells assessed as IL-10 production after 18 hrs by ELISA; assay type: functional, cell-based
[27] = Induction of apoptosis in C57BL/6 mouse dendritic cells assessed as necrotic cells at 25 uM after 72 hrs using annexin V-propidium iodide and annexin V staining by flow cytometry; assay type: cell-based
dendritic [28] = assay: Immunomodulatory effect in Leishmania major uninfected C57BL/6 mouse bone marrow dendritic cells assessed as expression of MHC-2 at 5 to 50 uM after 18 hrs by flow cytometry; assay type: functional, cell-based
[29] = Cytotoxicity against C57BL/6 mouse immature bone marrow-derived dendritic cells at 5 uM after 72 to 96 hrs by propidium iodide exclusion staining based flow cytometry; assay type: cell-based
dendritic [30] = assay: Immunomodulatory effect in uninfected C57BL/6 mouse dendritic cells assessed as IL-12p40 production after 18 hrs by ELISA; assay type: functional, cell-based
dendritic [31] = assay: Immunomodulatory effect in Leishmania major Leishmania major infected sC57BL/6 mouse bone marrow dendritic cells assessed as CD54 expression at 5 to 50 uM after 18 hrs by flow cytometry; assay type: functional, cell-based; conditions: C57BL/6
dendritic [32] = assay: Immunomodulatory effect in uninfected C57BL/6 mouse dendritic cells assessed as IL-12p70 production after 18 hrs by ELISA; assay type: functional, cell-based
[33] = Induction of apoptosis in C57BL/6 mouse dendritic cells assessed as early apoptotic cells at 5 uM after 18 hrs using annexin V-propidium iodide and annexin V staining by flow cytometry; assay type: cell-based
[34] = Induction of apoptosis in C57BL/6 mouse dendritic cells assessed as necrotic cells at 5 uM after 72 hrs using annexin V-propidium iodide and annexin V staining by flow cytometry; assay type: cell-based
dendritic [35] = assay: Immunomodulatory effect in uninfected C57BL/6 mouse dendritic cells assessed as TNF-alpha production after 18 hrs by ELISA; assay type: functional, cell-based
[36] = Induction of apoptosis in C57BL/6 mouse dendritic cell assessed as early apoptotic cells at 50uM after 18 hrs using annexin V-propidium iodide staining by flow cytometry; assay type: cell-based
dendritic [37] = assay: Immunomodulatory effect in Leishmania major Leishmania major infected sC57BL/6 mouse bone marrow dendritic cells assessed as MHC-2 expression at 5 to 50 uM after 18 hrs by flow cytometry; assay type: functional, cell-based; conditions: C57BL/6
Mus musculus [38] = assay: Immunomodulatory effect in Leishmania major infected C57BL/6 mouse assessed as levels of CD11c+ and MHC-2+ in dendritic cells at 200 ug administered topically measured after 48 hrs by FACS method; assay type: functional, organism-based
dendritic [39] = assay: Immunomodulatory effect in Leishmania major uninfected C57BL/6 mouse bone marrow dendritic cells assessed as CD40 expression at 5 to 50 uM after 18 hrs by flow cytometry; assay type: functional, cell-based
[40] = Induction of apoptosis in C57BL/6 mouse dendritic cells assessed as viable cells at 50 uM after 72 hrs using annexin V-propidium iodide and annexin V staining by flow cytometry; assay type: cell-based; conditions: read-out: Activity
dendritic [41] = assay: Induction of nitric oxide release in Leishmania major amastigotes infected C57BL/6 mouse dendritic cells assessed as nitrite production after 72 hrs; assay type: functional, cell-based
Leishmania major = assay: Antileishmenia activity against Leishmania major amastigotes infected in C57BL/6 mouse dendritic cells assessed as decrease in intracellular parasite amastigotes level at 50 uM by light microscopy; assay type: functional, organism-based
[42] = Induction of apoptosis in C57BL/6 mouse dendritic cells assessed as necrotic cells at 50 uM after 18 hrs using annexin V-propidium iodide and annexin V staining by flow cytometry; assay type: cell-based
[43] = Induction of apoptosis in C57BL/6 mouse dendritic cells assessed as viable cells at 25 uM after 72 hrs using annexin V-propidium iodide and annexin V staining by flow cytometry; assay type: cell-based; conditions: read-out: Activity
[44] = Induction of apoptosis in C57BL/6 mouse dendritic cells assessed as necrotic cells at 25 uM after 18 hrs using annexin V-propidium iodide and annexin V staining by flow cytometry; assay type: cell-based
[45] = Induction of apoptosis in C57BL/6 mouse dendritic cells assessed as late apoptotic cells at 50 uM after 18 hrs using annexin V-propidium iodide and annexin V staining by flow cytometry; assay type: cell-based
[46] = Induction of apoptosis in C57BL/6 mouse dendritic cells assessed as late apoptotic cells at 25 uM after 18 hrs using annexin V-propidium iodide and annexin V staining by flow cytometry; assay type: cell-based
[47] = Induction of apoptosis in C57BL/6 mouse dendritic cells assessed as necrotic cells at 5 uM after 18 hrs using annexin V-propidium iodide and annexin V staining by flow cytometry; assay type: cell-based

CCCCCCCCCCCCCCCCOP(=O)([O-])OCC[N+](C)(C)C [MILTEFOSINE]
Activity (dendritic [1]): inactive
Activity [2]: 23.15%
Activity [3]: 35.67%
Activity [4]: Toxic
viability at 72 h, 5 µM [5]: 36%
Activity (dendritic [6]): inactive
Activity [7]: 19.91%
Activity [8]: 6.56%
Activity (dendritic [9]): inactive
viability at 18 h, 5 µM [10]: 84%
viability at 18 h, 25 µM [11]: 58.4%
Activity [12]: 11.41%
Activity [13]: 22.72%
Activity (dendritic [14]): inactive
Activity (dendritic [15]): inactive
Activity (Mus musculus [16]): inactive
Activity (dendritic [17]): inactive
Activity (dendritic [18]): inactive
Activity (dendritic [19]): inactive
Activity (dendritic [20]): inactive
Activity [21]: 54.56%
Cp (Homo sapiens): 30800 ng/mL
Activity [22]: 23.15%
viability at 18 h, 50 µM [23]: 51.7%
Activity [24]: 21.16%
Activity (dendritic [25]): inactive
Activity (dendritic [26]): inactive
Activity [27]: 6.2%
Activity (dendritic [28]): inactive
Activity [29]: Active
Activity (dendritic [30]): inactive
Activity (dendritic [31]): inactive
Activity (dendritic [32]): inactive
Activity [33]: 20.7%
Activity [34]: 5.16%
Activity (dendritic [35]): inactive
Activity [36]: 43.18%
Activity (dendritic [37]): inactive
Activity (Mus musculus [38]): inactive
Activity (dendritic [39]): inactive
viability at 72 h, 50 µM [40]: 17.7%
Activity (dendritic [41]): inactive
inhibition (Leishmania major): Dose-dependent effect
Activity [42]: 6.6%
viability at 72 h, 25 µM [43]: 28.9%
Activity [44]: 5.83%
Activity [45]: 18.57%
Activity [46]: 15.89%
Activity [47]: 3.91%
